Experimental findings from patent US10647693B2, “Inhibitors of influenza virus replication, application methods and uses thereof” (SUNSHINE LAKE PHARMA CO., LTD., priority 2016, dated 2020) are described below.

The nature of one data set: in vivo. Conditions: SD, rat.
The conditions of data set [1]: SD, rat, in vivo, po, 5 mg/kg.
Protocol: (§1) Pharmacokinetic characteristics of the compound of the invention in SD rat were evaluated. The compounds disclosed herein were administered in form of a saline solution containing 5% DMSO, 5% Kolliphor HS 15 and 90% Saline. For intravenous administration (i.v.), the animals were administered with a dose of 1 mg/kg, and blood samples (0.3 mL) were collected at the time points of 0.083, 0.25, 0.5, 1.0, 2.0, 5.0, 7.0 and 24 h after drug administration, then each blood sample was processed to separate plasma by centrifugation at 3000 rpm or 4000 rpm for 10 minutes. For oral administration (p.o.), the animals were administered with a dose of 5 mg/kg, and blood samples (0.3 mL) were collected at the time points of 0.25, 0.5, 1.0, 2.0, 5.0, 7.0 and 24 h after drug administration, then each blood sample was processed to separate plasma by centrifugation at 3000 rpm or 4000 rpm for 10 minutes. Plasma samples were collected and stored at −20° C. or −70° C. until LC/MS/MS analysis.
In another data set the test system is virus H1N1 A/Weiss/43. Kind of data set: microbe, parasite or virus in culture. It is filed as cell-based. Conditions: Influenza A virus, 120 h; inhibition of CPE caused by A/Weiss/43(H1N1) in MDCK cells, 5 days, CCK-8.

Protocol for in vivo: as §1

On to `N#Cc1c(-c2c[nH]c3c(F)cc(F)cc23)nc(NC2C3CCC(CC3)C2C(=O)O)c(F)c1-c1ccco1` (racemic) [Example 1, (+/−)-trans-3-((5-cyano-6-(5,7-difluoro-1H-indol-3-yl)-3-fluoro-4-(furan-2-yl)pyridin-2-yl)amino)bicyclo[2.2.2]octane-2-carboxylic Acid], for which, in the data set “in vivo” (iv, 1 mg/kg), the AUC(0-inf) turned out to be 5710 ng·h/mL, the AUC(0-t) turned out to be 5680 ng·h/mL, the Cmax turned out to be 6560 ng/mL and the Tmax worked out at 0.083 h. In “in vivo” (iv, 1 mg/kg), this molecule gave a Vd of 0.231 L/kg, a clearance of 3.86 mL/min/kg and a half-life of 1.24 h. In “in vivo” (po, 5 mg/kg), the AUC(0-inf) amounted to 21600 ng·h/mL, the AUC(0-t) was 21300 ng·h/mL, the concentration peaked (Cmax) at 5780 ng/mL and the Tmax is 1.1 h. In addition, in “in vivo” (po, 5 mg/kg), the half-life was 1.52 h. For the same molecule, the F in data set [1] was determined as 83.9%. In the data set with virus H1N1 A/Weiss/43, this molecule displayed an EC50 of 0.27 nM.
Regarding `N#Cc1c(-c2c[nH]c3c(F)cc(F)cc23)nc(NC2C3CCC(CC3)C2C(=O)O)c(F)c1-c1ccc(C(F)(F)F)cc1` (racemic) [Example 3, (+/−)-trans-3-((5-cyano-6-(5,7-difluoro-1H-indol-3-yl)-3-fluoro-4-(4-trifluoromethylphenyl)pyridin-2-yl)amino)bicyclo[2.2.2]octane-2-carboxylic Acid], in the data set “in vivo” (iv, 1 mg/kg), the AUC(0-inf) stood at 2620 ng·h/mL, the AUC(0-t) was found to be 2580 ng·h/mL, the peak level (Cmax) was 4340 ng/mL and the time of peak concentration (Tmax) amounted to 0.083 h. For the same molecule, in “in vivo” (iv, 1 mg/kg), the Vd amounted to 1.98 L/kg, the clearance worked out at 7.18 mL/min/kg and the half-life is 1.13 h. Besides, in “in vivo” (po, 5 mg/kg), the AUC(0-inf) amounted to 13100 ng·h/mL, the AUC(0-t) was determined as 12600 ng·h/mL, the Cmax is 8860 ng/mL and the Tmax worked out at 0.35 h. In “in vivo” (po, 5 mg/kg), the half-life was 1.76 h. The molecule also registered a F in data set [1] of 104.6%.
In the data set on virus H1N1 A/Weiss/43, `N#Cc1c(-c2c[nH]c3c(F)cc(F)cc23)nc(NC2C3CCC(CC3)C2C(=O)O)c(F)c1C1CC1` (racemic) [Example 8, (+/−)-trans-3-((5-cyano-4-cyclopropyl-6-(5,7-difluoro-1H-indol-3-yl)-3-fluoropyridin-2-yl)amino)bicyclo[2.2.2]octane-2-carboxylic Acid] gave an EC50 of 5.09 nM.
`N#Cc1c(-c2c[nH]c3ncc(F)cc23)nc(NC2C3CCC(CC3)C2C(=O)O)c(F)c1C1CC1` (racemic) [Example 9, (+/−)-trans-3-((5-cyano-4-cyclopropyl-3-fluoro-6-(5-fluoro-1H-pyrrolo[2,3-b]pyridin-3-yl)pyridin-2-yl)amino)bicyclo[2.2.2]octane-2-carboxylic Acid]: in the data set “in vivo” (iv, 1 mg/kg), the area under the curve AUC(0-inf) stood at 2710 ng·h/mL, the AUC(0-t) was 2640 ng·h/mL, the Cmax worked out at 3640 ng/mL and the Tmax was 0.083 h. In “in vivo” (iv, 1 mg/kg), this molecule showed a Vd of 0.551 L/kg, a clearance of 5.46 mL/min/kg and a half-life of 2.15 h. In “in vivo” (po, 5 mg/kg), the AUC(0-inf) was 8230 ng·h/mL, the AUC(0-t) worked out at 8140 ng·h/mL, the concentration peaked (Cmax) at 2850 ng/mL and the Tmax amounted to 0.46 h. This molecule also gave a half-life in the data set “in vivo” (po, 5 mg/kg) of 3.39 h. This molecule also displayed a F in data set [1] of 65.2%. Further, the response with virus H1N1 A/Weiss/43 was half-maximal at 0.49 nM (EC50).
In the case of `N#Cc1c(-c2c[nH]c3c(F)cc(F)cc23)nc(NC2C3CCC(CC3)C2C(=O)O)c(F)c1-c1ccccc1` (racemic) [Example 14, (+/−)-trans-3-((5-cyano-6-(5,7-difluoro-1H-indol-3-yl)-3-fluoro-4-phenylpyridin-2-yl)amino)bicyclo[2.2.2]octane-2-carboxylic Acid], in “in vivo” (iv, 1 mg/kg), the AUC(0-inf) was determined as 3520 ng·h/mL, the AUC(0-t) is 3450 ng·h/mL, the Cmax is 4130 ng/mL and the time to peak (Tmax) is 0.083 h. In the data set “in vivo” (iv, 1 mg/kg), this molecule had a distribution volume (Vd) of 0.432 L/kg, a clearance of 5.12 mL/min/kg and a half-life of 1.31 h. In “in vivo” (po, 5 mg/kg), the AUC(0-inf) stood at 10300 ng·h/mL, the AUC(0-t) is 10100 ng·h/mL, the Cmax is 2980 ng/mL and the Tmax was determined as 1.22 h. The same molecule showed a half-life in the data set “in vivo” (po, 5 mg/kg) of 1.46 h. The F in data set [1] was 74.6%. In the data set on virus H1N1 A/Weiss/43, this molecule had an EC50 of 10.5 nM.
As to `Cn1ccc2c(NC3C4CCC(CC4)C3C(=O)O)nc(-c3c[nH]c4ncc(F)cc34)cc21` (racemic) [Example 20, (+/−)-trans-3-((6-(5-fluoro-1H-pyrrolo[2,3-b]pyridin-3-yl)-1-methyl-1H-pyrrolo[3,2-c]pyridin-4-yl)amino)bicyclo[2.2.2]octane-2-carboxylic Acid], in the data set on virus H1N1 A/Weiss/43, the EC50 is 2.58 nM.
`Cn1cc(-c2c(F)c(N[C@H]3C4CCC(CC4)[C@@H]3C(=O)O)nc(-c3c[nH]c4c(F)cc(F)cc34)c2C#N)cn1` [Example 12a, (2S,3S)-3-((5-cyano-6-(5,7-difluoro-1H-indol-3-yl)-3-fluoro-4-(1-methyl-1H-pyrazol-4-yl)pyridin-2-yl)amino)bicyclo[2.2.2]octane-2-carboxylic Acid] returned an EC50 with virus H1N1 A/Weiss/43 of 0.96 nM.
